Assay results published in patent publication US20180280326A1, “MEDICAMENT FOR PREVENTING OR INHIBITING ACUTE KIDNEY INJURY” (National Cerebral and Cardiovascular Center, priority 2015, published 2018).

Assays:
[1] = tested on: AT2 receptor deficient mice, CDDP induced acute kidney injury; assay: CDDP induced acute kidney injury-inhibiting effects on AT2 receptor deficient mice; type: in vivo; details: male AT2 receptor deficient mice; CDDP 15 mg/kg i.p.; oral 30 mg/kg per day from 3 days before; 72 hours after CDDP
Method: To 8- to 12-week-old male AT2 receptor deficient mice (n=3 or 5 to 7), 15 mg/kg of cisplatin (CDDP, disease group) or 30 mL/kg of phosphate buffered saline (PBS, normal group) was intraperitoneally administered.
A 0.2 mg/mL aqueous solution of Compound C in 0.5% carboxymethylcellulose (CMC) was prepared and orally administered so that Compound C was at a dose of 30 mg/kg per day from 3 days before the start of the experiment, and the mice were subjected to the experiment. To the control group, the same dose of 0.5% CMC aqueous solution was administered.
At 72 hours after CDDP administration, incision in the abdomen was performed under sevoflurane anesthesia, and the whole blood was collected from the abdominal great vein using a syringe. The blood was centrifuged, and the supernatant (serum) was collected. The serum was stored at −20 to −80° C. Immediately before dissection, spot urine was collected from each mouse.
Using the measurement kits, urinary albumin (Alb) and urinary creatinine (Cr) were measured for the calculation of the urinary Alb/Cr ratio, and also blood urea nitrogen (BUN) was measured. The results are shown in FIG. 3 (urinary Alb/Cr ratio) and FIG. 4 (BUN).

human renal cells = details: LPS as an endotoxin acting on human renal cells; Non Patent Literature 6; cited from earlier work

| SMILES | inhibition of acute kidney injury caused by CDDP (urinary Alb/Cr ratio, FIG. 3; BUN, FIG. 4) [1] | level of IL-6 (human renal cells) | level of TNF-α (human renal cells) |
| --- | --- | --- | --- |
| CCN(CC)C(=O)[C@H](Cc1ccc(NC(=O)c2ccccc2)cc1)C(=O)NS(=O)(=O)c1ccc2ccccc2c1 [Compound C, (2S)-2-[4-(benzoylamino)benzyl]-N,N-diethyl-N′-(2-naphthylsulfonyl)malonamide] | not effective |  |  |
| CCCCOC(=O)NS(=O)(=O)c1sc(CC(C)C)cc1-c1ccc(Cn2ccnc2)cc1 [Example C21] |  | lowered | lowered |
